Assay results published in US9073863B2, “Cyanoquinoline compounds having activity in correcting mutant-CFTR processing and increasing ion transport and uses thereof” (The Regents of the University of California, priority 2011, dated 2015).

Tests used:
ΔF508-CFTR [1] = molecular target: T1, ΔF508-CFTR (Homo sapiens, UniProt P13569, DEL508-508); assay: Corrector assay, YFP fluorescence plate reader iodide influx in ΔF508-CFTR expressing FRT cells; format: cell-based; settings: Compound 22 (20 µM) or Corr-4a (10 µM), 24 h
T1 construct: expressed in transfected cells; host or cells: Fischer rat thyroid (FRT) epithelial cells, stably transfected
Procedure: Screening procedures. Screening of compounds for activity was carried out using a Beckman Coulter platform equipped with FLUOstar fluorescence plate readers (Optima; BMG Labtech) with dual syringe pumps and 500±10 nm excitation and 535±15 nm emission filters (Chroma Corp.). For the corrector assay, FRT cells were grown at 37° C./5% CO2 for 18-24 h and then incubated for 18-24 h with 100 μL of medium containing test compounds (25 μM final concentration). At the time of the assay, cells were washed with PBS and then incubated for 10 min with PBS containing forskolin (20 μM) and genistein (50 μM). For the potentiator assay, FRT cells were grown at 37° C./5% CO2 for 18-24 h and then for 18-24 h at 27° C. At the time of the assay, cells were washed with PBS and then incubated for 10 min with PBS (50 μL) containing forskolin (20 μM) and test compound (0-25 μM final concentration). For both the corrector and potentiator assays, each well was assayed individually for I^− influx by recording fluorescence continuously (200 ms per point) for 2 s (baseline) and then for 12 s after rapid addition of 165 μL PBS in which 137 mM Cl^− was replaced by I^−. Initial I^− influx rate was computed by fitting the final 11.5 seconds of the data to an exponential for extrapolation of initial slope, which was normalized for background-subtracted initial fluorescence. All compound plates contained negative controls and positive controls (10 μM Corr-4a for corrector assay; 50 μM genistein for potentiator assay).
Screening of about 110,000 small molecules was done to identify new ΔF508-CFTR corrector scaffolds having high correction efficiency and/or having independent potentiator activity. […] FRT cells co-expressing human ΔF508-CFTR and a halide-sensing YFP were incubated with test compounds at 37° C. (corrector assay) or 27° C. (potentiator assay). ΔF508-CFTR function was assayed in a plate reader from YFP fluorescence quenching in response to iodide addition in the presence of forskolin (20 μM) plus genistein (50 μM) for corrector assay, or forskolin (20 μM) alone for potentiator assay. As shown in FIG. 1A (left), primary screening for corrector activity was done using a cell-based fluorescence assay of iodide influx in which FRT cells expressing ΔF508-CFTR and an iodide-sensitive YFP were incubated with test compounds at 10 μM for 18-24 h prior to assay. Iodide influx was measured by addition of extracellular iodide in the presence of a potentiator (50 μM genistein) and cAMP agonist (20 μM forskolin). Compound efficacy and potency (from concentration-dependence studies) in the corrector assay were compared to reference bithiazole Corr-4a (10 μM) and to low-temperature rescued cells. Active compounds were counter-screened for potentiator activity (FIG. 1A, right) in which iodide influx was measured in the ΔF508-CFTR expressing FRT cells after low-temperature rescue and in the presence of 20 μM forskolin.
Screening procedures. Plate reader activity assay was carried out using a Beckman Coulter platform containing a robotic arm, CO2 incubator containing microplate carousel, plate-washer, liquid handling work station, bar code reader, de-lidding station, plate sealer, and FLUOstar fluorescence plate readers (Optima; BMG LABTECH Gmbh), equipped with dual syringe pumps and 500±10 nm excitation and 535±15 nm emission filters (Chroma Corp.). For the corrector assay, ΔF508-CFTR-expressing FRT cells were grown at 37° C. (90% humidity; 5% CO2) for 18-24 h and then incubated for 18-24 h with 100 μL of medium containing test compounds (0-25 μM final concentration). At the time of the assay, cells were washed with PBS and then incubated for 10 min with PBS containing forskolin (20 μM) and genistein (50 μM). For the potentiator assay, FRT cells were grown at 37° C. (90% humidity; 5% CO2) for 18-24 h and then for 18-24 h at 27° C. […]

ΔF508-CFTR [2] = molecular target: T1, ΔF508-CFTR; assay: CFTR immunoblot of ΔF508-CFTR expressing FRT cells; format: cell-based; settings: 24 h at 37° C.
Procedure: CFTR Immunoblot. DF508-CFTR expressing FRT cells grown on 6-well plates were treated with Corr-4a ([…]), Compound 22 […] or negative control at 37° C. for 24 h. After treatment, cells were washed with PBS and lysed in 20 mM Hepes (pH 7), 150 mM NaCl, 1 mM EGTA and 1% Igepal containing Complete Protease Inhibitor Cocktail (Roche). After pre-clearing, lysates were subjected to SDS-PAGE and analyzed by immunoblot. Proteins were immunodetected using a mouse monoclonal anti-CFTR antibody (M3A7, Millipore) followed by HRP-conjugated anti-mouse IgG, and visualized by chemiluminescence (ECL Plus, Amersham).
The action of Compound 22 as corrector of defective ΔF508-CFTR cellular processing was verified by CFTR immunoblot analysis (FIG. 4C). Wildtype CFTR was detected as a strong band at 170 kDa (band C), corresponding to complex glycosylated CFTR. […] Band B, which corresponds to core-glycosylated ΔF508-CFTR, was also seen.

T1 sequence (P13569 with tags, fused parts or gaps DEL508-508): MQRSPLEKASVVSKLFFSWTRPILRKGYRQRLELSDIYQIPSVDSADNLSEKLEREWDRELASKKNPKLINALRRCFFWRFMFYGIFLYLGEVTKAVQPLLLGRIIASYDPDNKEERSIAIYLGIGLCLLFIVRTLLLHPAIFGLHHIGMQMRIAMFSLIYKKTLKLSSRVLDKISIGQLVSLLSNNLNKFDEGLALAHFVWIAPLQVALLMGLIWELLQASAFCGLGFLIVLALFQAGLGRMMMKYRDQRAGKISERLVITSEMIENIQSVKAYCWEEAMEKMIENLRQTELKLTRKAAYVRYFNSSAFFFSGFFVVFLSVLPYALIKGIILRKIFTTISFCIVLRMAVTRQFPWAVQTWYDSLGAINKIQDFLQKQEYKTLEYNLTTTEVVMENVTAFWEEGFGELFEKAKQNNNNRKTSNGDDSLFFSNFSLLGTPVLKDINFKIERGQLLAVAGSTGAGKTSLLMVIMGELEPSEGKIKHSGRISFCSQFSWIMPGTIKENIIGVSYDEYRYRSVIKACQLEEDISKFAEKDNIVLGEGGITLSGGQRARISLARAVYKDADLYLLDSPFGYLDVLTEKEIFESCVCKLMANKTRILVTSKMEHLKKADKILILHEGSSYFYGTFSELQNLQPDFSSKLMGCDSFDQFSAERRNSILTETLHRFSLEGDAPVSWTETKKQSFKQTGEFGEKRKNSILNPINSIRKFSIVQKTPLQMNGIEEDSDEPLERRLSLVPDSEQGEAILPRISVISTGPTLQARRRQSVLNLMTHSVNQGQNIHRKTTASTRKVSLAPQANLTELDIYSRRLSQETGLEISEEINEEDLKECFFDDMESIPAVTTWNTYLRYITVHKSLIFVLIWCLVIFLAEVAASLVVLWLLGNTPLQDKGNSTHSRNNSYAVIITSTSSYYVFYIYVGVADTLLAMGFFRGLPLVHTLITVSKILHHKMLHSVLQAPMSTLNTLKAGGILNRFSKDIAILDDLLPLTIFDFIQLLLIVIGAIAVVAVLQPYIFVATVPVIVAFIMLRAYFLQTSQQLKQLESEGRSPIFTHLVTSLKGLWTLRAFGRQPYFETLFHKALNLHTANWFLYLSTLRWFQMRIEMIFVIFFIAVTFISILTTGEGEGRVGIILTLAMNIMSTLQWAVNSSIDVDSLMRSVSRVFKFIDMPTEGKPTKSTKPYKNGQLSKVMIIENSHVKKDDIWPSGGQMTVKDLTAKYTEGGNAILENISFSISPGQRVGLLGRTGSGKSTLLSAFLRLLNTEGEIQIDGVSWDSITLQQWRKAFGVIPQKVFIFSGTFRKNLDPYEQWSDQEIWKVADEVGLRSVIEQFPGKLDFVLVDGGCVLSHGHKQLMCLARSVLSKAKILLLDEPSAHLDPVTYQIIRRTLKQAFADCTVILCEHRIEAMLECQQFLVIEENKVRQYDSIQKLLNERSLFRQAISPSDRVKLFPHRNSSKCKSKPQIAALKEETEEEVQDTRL

## COc1ccc(Cl)cc1Nc1nc(-c2sc(NC(=O)c3ccccc3)nc2C)cs1 [Corr-4a, reference compound]
ΔF508-CFTR [1]; 27° C., vs low-temperature rescue control
  iodide influx after incubation at 27° C.: substantially increased iodide influx
ΔF508-CFTR [1]; 37° C., with genistein
  iodide influx after incubation at 37° C.: increased iodide influx
ΔF508-CFTR [2]
  complex glycosylated CFTR (band C) in immunoblot: band C was visualized
